Experimental data taken from patent US8716530B2, “Facially amphiphilic polyaryl and polyarylalkynyl polymers and oligomers and uses thereof” (The Trustess of the University of Pennsylvania, priority 2004, dated 2014).
Like-named read-outs stand apart in the source and are kept apart here.

Key:
K. pneumonia = assay: Modified NCCLS microbroth dilution MIC assay; conditions: Klebsiella pneumoniae, read-out: K. pneumonia MIC
E. coli = assay: Modified NCCLS microbroth dilution MIC assay; format: cell-based; conditions: Escherichia coli
B. anthracis = assay: microbe, parasite or virus in culture; format: cell-based; conditions: Bacillus anthracis
Streptococcus agalactiae = format: cell-based
Klebsiella pneumoniae = format: cell-based
[1] = test system: S. aureus and methicillin-resistant S. aureus (MRSA); assay: MIC100, modified NCCLS microbroth dilution (Table 6); format: cell-based; conditions: Staphylococcus aureus
[2] = test system: Lovenox inhibition of Factor Xa (FXa) activity; assay: Chromogenic FXa assay: antagonism of Lovenox inhibition of Factor Xa; format: biochemical; conditions: fixed concentration of Lovenox, chromogenic substrate S-2765
Protocol: To assess the potential of the phenylalkynyl oligomers to act as antagonists of the low molecular weight heparins (LMWH), Compound 3 was assayed for its ability to antagonize the inhibition of Factor Xa (FXa) activity by the LMWH Lovenox was determined for Compound 3. Briefly, FXa activity in the presence of Lovenox and inhibitor was measured in a chromogenic assay using reagents purchased from DiaPharma. […] In the assay setup for Schild-plot analysis (KB determination), varying concentrations of Lovenox were incubated with AT for 5 minutes. Different concentrations of inhibitor were added to each row of wells, to construct curves of fixed inhibitor concentration, and lightly shaken and incubated for 20 minutes. FXa was then added and reaction was shaken and incubated for 10 minutes. The substrate (S-2765) was then added to initiate the clotting cascade and the 96-well plate was then shaken and read every 30 seconds for 7 minutes at 405 nm on a ThermoLabsystems Multiskan Spectrum. The single curve Lovenox titration experiments (IC50 determination) consisted of the same procedure, but with a fixed concentration of Lovenox (determined by a titration curve in the absence of inhibitor). The analysis of each curve was performed using GraphPad Prism version 4.00 for Windows.

NCCc1cc(Br)cc(C#Cc2cccc(C#Cc3cc(Br)cc(CCN)c3)c2)c1 [Compound 3]
0.5 mg/L: MIC ([1]; ATCC 29213 / MRSA, strain ATCC29213 (Table 6), read-out: MIC100 S. aureus ATCC29213) | MIC ([1]; MRSA, methicillin-resistant S. aureus OC2878, read-out: MIC100 MRSA OC2878)
0.8 mg/L: MIC90 (E. coli; read-out: MIC90 E. Coli) | MIC (E. coli; 18 to 20 hours incubation, OD 600 nm) | MBC (E. coli; E. coli D31, defined as >3 log reduction in bacterial titre)
5.07 µM: IC50 [2]
1 mg/L: MIC (B. anthracis; read-out: MIC100 B. anthracis 127) | MIC (B. anthracis; read-out: MIC100 B. anthracis 1099) | MIC (B. anthracis; read-out: MIC100 B. anthracis A3) | MIC (B. anthracis; read-out: MIC100 B. anthracis A19) | MIC (B. anthracis; read-out: MIC100 B. anthracis A58) | MIC (B. anthracis; read-out: MIC100 B. anthracis A60) | MIC (B. anthracis; read-out: MIC100 B. anthracis A73) | MIC (B. anthracis; read-out: MIC100 B. anthracis AC1) | MIC (B. anthracis; read-out: MIC100 B. anthracis RA3R)
1.7 mg/L: MIC (K. pneumonia) | MIC100 Klebsiella pneumoniae (Klebsiella pneumoniae)
0.4 mg/L: MIC100 Streptococcus agalactiae (Streptococcus agalactiae)
2 mg/L: MIC (B. anthracis; read-out: MIC100 B. anthracis 7611R) | MIC (B. anthracis; read-out: MIC100 B. anthracis A74) | MIC (B. anthracis; read-out: MIC100 B. anthracis Vollum)
